Laboratory results from patent publication US20070015771A1, “Lonidamine analogs” (Threshold pharmaceuticals, Inc., priority 2004, published 2007).
Read-outs that look alike come from different tables or passages of the source.

Assays:
[1] = test system: H460 cells; experiment: Antiproliferation assay (Alamar Blue), H460 cells; assay type: cell-based
Method: (§1) To determine the effect of lonidamine and analogs thereof on cell proliferation, the antiproliferative activity of these compounds was tested in a multi-well Alamar Blue based assay (at 2 h and 3 days). Cell growth in the presence and absence of the test compound (compounds 1-22) was compared, as measured by a fluorescence plate reader at excitation 550 nm and emission 590 nm (see Biosource International Inc., Tech Application Notes, Use of Alamar Blue in the measurement of Cell Viability and Toxicity, Determining IC50). H460 cells (ATCC HTB-177 ([…]), 4,000 cells/well/200 μl) and LNCap cells (ATCC CRL-1740, 6,000 cells/well/200 μl) were seeded in a 96 well plate in RPMI medium (Invitrogen Corporation, Carlsbad, Calif.). After 24 hours, these plates were divided into 3 groups—Control group, 2 h treatment group and 3 day treatment group. In the 2 h treatment group, after 2 h the cells were rinsed to remove the test compound and incubated for 3 days, followed by staining with AlamarBlue. The cells in the 3 day treatment group were incubated for 3 days, followed by staining with AlamarBlue. In the Control group, AlamarBlue was added to the plate at (i) day 0 and (ii) day 3 and measured to establish the control reading.

[2] = test system: PWR-1E cells; experiment: Antiproliferation assay, PWR-1E cells (Example 48); assay type: cell-based; details: read-out: IC50 PWR-1E cell
Method: as §1
The effect of lonidamine and analogs thereof on cell proliferation in PWR-1E cells (ATCC CRL-11611) was determined in an antiproliferative assay using PWR-1E cells (5000 cells/well) in Keratinocyte SFM medium (Gibco Products, Invitrogen Corporation, Carlsbad, Calif.) according to the procedure detailed in Example 47 above.

[3] = test system: PWR-1E cells; experiment: Antiproliferation assay 3 days, PWR-1E cells (Example 49); assay type: cell-based; details: read-out: PWR1e cell line IC50
Method: (§2) To determine the effect of lonidamine analogs thereof on cell proliferation, the antiproliferative activity of these compounds was tested in a multi-well Alamar Blue based assay (at 3 days). Cell growth in the presence and absence of the test compound was compared, as measured by a fluoresence plate reader at excitation 550 nm and emission 590 nm (see Biosource International Inc., Tech Application Notes, Use of Alamar Blue in the measurement of Cell Viability and Toxity, Determining IC50). The following cell lines were tested: PWR-1E cells ((ATCC CRL-11611), 3500 cells/well/200 μl in Keratinocyte SFM medium (Gibco Products, Invitrogen Corporation, Carlsbad, Calif.)); DU-145 cells ((ATCC HTB-81), 4000 cells/well/200 μl in MEM Eagles medium (ATCC, Manassas, Va.)); PC3 cells ((ATCC CRL-1435), 4000 cells/200 μl in Modified HAM's F12 medium (ATCC, Manassas, Va.)); PNt2 cells ((Sigma-Aldrich, 95012613-1 VL), 4000 cells/well/200 μl in RPMI medium (Gibco Products, Invitrogen Corporation, Carlsbad, Calif.), BPH-1 ((DSMZ ACC-143), 4000 cells/well/200 μl in RPMI medium (Gibco Products, Invitrogen Corporation, Carlsbad, Calif), and NCI-H460 cells ((ATCC HTB-177), 4000 cells/well/200 μl in RPMI medium (Gibco Products, Invitrogen Corporation, Carlsbad, Calif.)). The cells were seeded in a 96 well plate in a medium specified above. After 24 hours, these plates were divided into 2 groups—Control group and 3 day treatment group. A test compound was added to each plate in the treatment groups at concentrations of […] as tabulated in Table 1 (in 2 μl 1 of 100% DMSO, final DMSO concentration 1% in all wells). For NCI-H460 cells, test compounds were added to each plate in the treatment groups at concentrations of 600, 300, 100, 30, 10, 3, and 1 μM (in 2 μl of 100% DMSO, final DMSO concentration 1% in all wells). The cells in the 3 day treatment group were incubated for 3 days, followed by staining with AlamarBlue. In the Control group, AlamarBlue was added to the plate at (i) day 0 and (ii) day 3 and measured to establish the control reading. […] For the NCI-H460 cells, the capacity of the cells to proliferate was measured 5 hours after addition of AlamarBlue using the same fluorescence plate reader as stated above.

[4] = test system: LNCaP cells; experiment: Antiproliferation assay (Alamar Blue), LNCaP cells; assay type: cell-based, human; details: 3 day treatment, read-out: GI50 LNCaP cell 3days
Method: as §1

[5] = test system: DU-145 cells; experiment: Antiproliferation assay 3 days, DU-145 cells; assay type: cell-based; details: 3 day treatment; read-out: Du-145 cell line IC50
Method: as §2

[6] = test system: BPH-1; experiment: Antiproliferation assay 3 days, BPH-1 cells; assay type: cell-based; details: 3 day treatment; read-out: BPH-1 cell line IC50
Method: as §2

[7] = test system: PNt2 cells; experiment: Antiproliferation assay 3 days, PNt2 cells; assay type: cell-based; details: 3 day treatment; read-out: PNT2c cell line IC50
Method: as §2

[8] = test system: PC3 cells; experiment: Antiproliferation assay 3 days, PC3 cells; assay type: cell-based, human; details: 3 day treatment; read-out: PC-3 cell line IC50
Method: as §2

[9] = test system: mouse prostate; experiment: Mouse study, 10 day effect of Compound 3 on prostate; assay type: in vivo; details: mice
Method: (§3) The 10 day effect of Compound 3 on the mouse prostate and its 5 day effect on mouse testis were determined as in Example 51 by using 10 mice per experiment group and the results are illustrated graphically in FIGS. 14-18.

[10] = test system: mouse testis; experiment: Mouse study, 5 day effect of Compound 3 on testis; assay type: in vivo; details: mice
Method: as §3

[11] = test system: SH rat prostate; experiment: 5 day systemic administration in male SH rats, prostate; assay type: in vivo; set-up: inhibition in vivo: dose or concentration left out as unconfirmed; details: for Prostate shrinkage: male SH rats, oral daily for 5 days at 50 mg/ml, day 6; for inhibition in vivo: Rattus norvegicus, po, 144 h, read-out: Prostate shrinkage
Method: (§4) The effect of test compounds (lonidamine and lonidamine analogs) on the SH rat prostate was determined as follows. The test compound was orally administered daily for 5 days to male, SH rat, (n=6, 14 weeks old, Charles River Labs) at 50 mg/ml concentrations (as a 0.5% carboxymethylcellulose formulation). The control rats received an equal amount of the vehicle ([…]). Blood samples were collected 2 hours after administration on day 6, for pharmokinetic analysis of the compounds. On day 6 the rats were sacrificed and the entire prostate and the individual lobes (e.g., the ventral, dorso-lateral, and anterior lobes) were removed and weighed to measure absolute weights. Relative weights of prostate and individual lobes were calculated by dividing the absolute weight by the total body weight of the […]. Relative weights of the entire prostate, the dorsal prostate, and the ventral prostate were calculated by dividing the absolute weight by the total weight of the mouse. The histomorphology of the prostate was also analyzed and compared to that of the control or untreated prostate.

[12] = test system: testes; experiment: 5 day systemic administration in male SH rats, testis; assay type: in vivo, rat; set-up: inhibition in vivo: dose or concentration left out as unconfirmed; details: for Testis shrinkage: male SH rats, oral daily for 5 days at 50 mg/ml, day 6; for inhibition in vivo: Rattus norvegicus, po, 144 h, read-out: Testis shrinkage
[13] = 5 day systemic administration in male SH rats, pharmacokinetic blood samples; assay type: in vivo, rat; details: oral daily for 5 days at 50 mg/ml, blood 2 hours after administration; for concentration at 2 h: rat, in vivo, read-out: PK
Method: as §4

[14] = test system: NCI-H460 cells; experiment: Antiproliferation assay 3 days, NCI-H460 cells; assay type: cell-based; details: Homo sapiens, NCI-H460, 72 h, read-out: NCI-H460 cell line IC50
Method: as §2

[15] = test system: advanced breast cancer; details: 28 evaluable patients, daily divided oral dose of 600 mg; cited from earlier work
[16] = test system: HIF-1-alpha; details: cells cultured under hypoxia, cited from earlier work
[17] = test system: cell lines derived from human prostate cells; details: LNCaP vs PC3 cells; cited from earlier work
[18] = test system: primary cultures of human prostate epithelial cells; details: epithelial vs stromal cells; cited from earlier work
[19] = 3 day treatment, read-out: GI50 H460 cell 3 days
[20] = read-out: GI50 H460 cell 2 hr, 2 h treatment then 3 days incubation

| Compound | GI50 [1, 19] [µM] | GI50 [1, 20] [µM] | IC50 [2] [µM] | IC50 ([3]; 3 day treatment) [µM] | GI50 [4] [µM] | Prostate shrinkage [11] [%] | Testis shrinkage [12] [%] | PK [13] [µg/mL] | further results |
| --- | --- | --- | --- | --- | --- | --- | --- | --- | --- |
| O=C(NO)c1nn(Cc2ccccc2)c2ccccc12 [Compound 2] | 31.6 | 400 | 18 | 18 |  |  |  |  |  |
| O=C(O)c1nn(Cc2c(Cl)cccc2Cl)c2ccccc12 [Compound 3] | 250 | 398 | 25 | 69 | 180 | −2.9 | 0.4 | 243 | IC50 [5]: 224 µM; IC50 [6]: 215 µM; IC50 [7]: 257 µM; IC50 [8]: 191 µM; absolute anterior prostate weight (FIG. 16) [9]: reduction; absolute dorsal prostate weight (FIG. 15) [9]: reduction; absolute ventral prostate weight (FIG. 14) [9]: reduction; absolute left testis weight (FIG. 18) [10]: reduction; absolute right testis weight (FIG. 17) [10]: reduction |
| CS(=O)(=O)NC(=O)c1nn(Cc2ccc(Cl)cc2Cl)c2ccccc12 [Compound 4] | 158 | 281 | 18 |  | 178 |  |  |  |  |
| NC(=O)c1nn(Cc2ccc(Cl)cc2Cl)c2ccccc12 [Compound 5] | 20 | 40 | 4 | 5.5 | 20 | −8.1 | −3.5 | 12 |  |
| O=C(O)c1nn(Cc2ccc(Cl)cc2Cl)c2ccccc12 [Compound 12] | > 400 | 251 | 20 | 31 | 125 | 17 | 42 | 153 | IC50 [5]: 214 µM; IC50 [6]: 230 µM; IC50 [7]: 198 µM; IC50 [8]: 195 µM |
| O=C(NO)c1nn(Cc2ccc(Cl)cc2Cl)c2ccc(Cl)cc12 [Compound 54] |  |  |  | 1.3 |  | 6.8 | 0.3 | 120 |  |
| CN(O)C(=O)c1nn(Cc2ccc(Cl)cc2Cl)c2ccccc12 [Compound 56] |  |  |  | 2.6 |  |  |  |  | IC50 [5]: 3.25 µM; IC50 [6]: 1.65 µM; IC50 [7]: 1.25 µM; IC50 [8]: 4 µM |
| OCc1nn(Cc2ccc(Cl)cc2Cl)c2ccccc12 [Compound 58] |  |  |  |  |  |  |  |  | inhibition in vivo [11]: 12.9%; inhibition in vivo [12]: 26.5%; concentration at 2 h [13]: 0 µg/mL |
| O=C(O)c1nn(Cc2ccc(Cl)cc2)c2ccc(Cl)cc12 [Compound 64] |  |  |  |  |  |  |  |  | IC50 ([3]; Homo sapiens, PWR-1E, 72 h): > 30 µM; IC50 [14]: 159 µM; inhibition in vivo [11]: -0.4%; inhibition in vivo [12]: -1.3%; concentration at 2 h [13]: 614 µg/mL |
| N#Cc1ccc(Cn2nc(C(=O)O)c3ccccc32)c(Cl)c1 [Compound 97] |  |  |  |  |  |  |  |  | IC50 ([3]; Homo sapiens, PWR-1E, 72 h): 135 µM; IC50 [14]: > 300 µM; inhibition in vivo [11]: 5.5%; inhibition in vivo [12]: 0.9%; concentration at 2 h [13]: 0 µg/mL |
| O=C(O)c1nn(Cc2ccc(Cl)cc2Cl)c2ccccc12 [lonidamine, 1-(2,4-dichlorobenzyl)-1H-indazole-3-carboxylic acid] |  |  |  |  |  |  |  |  | minor response [15]: 11%; partial response [15]: 11%; reduction of HIF-1-alpha expression/accumulation (nuclear fraction) ([16]; 200 micromolar): about 2 fold; reduction of HIF-1-alpha expression/accumulation (nuclear fraction) ([16]; higher lonidamine concentrations): more than 5 fold; apoptosis in cell lines derived from human prostate cells [17]: induces apoptosis; apoptosis in primary cultures of human prostate epithelial cells [18]: induces apoptosis |
